Laboratory results from patent US20250304623A1, “PEPTIDES FOR INTRACELLULAR DELIVERY” (UNIVERSIDADE DE SANTIAGO DE COMPOSTELA, priority 2022, published 2025).
*: point of attachment. NHNH2 = NN*

Experiments:
Assay type in all cases: cell-based
[1] = system: HepG2 cells; test: EGFP mRNA delivery, robotic library screening, HepG2; details: HepG2 cells
Description: Cells were seeded in a 96 well plate the day before the experiment at a concentration of 50,000 cell/mL (100 μL/w) in DMEM+10% FBS+1% Gln-Abt. For robotic library screening, the delivery of EGFP-mRNA (from TriLink, fully substituted with 5-methoxyuridine, capped and polyadenylated; TriLink, CleanCap® EGFP mRNA (5moU), ref. L-7201) in six different cell lines was performed. Amphiphilic molecule stock solutions were prepared in DMSO as described above and diluted in DMEM to afford a range of concentrations. The solutions of EGFP-mRNA/amphiphilic molecule complexes were freshly prepared prior to the transfection experiments. 35 μL of the corresponding amphiphile were added to 10 μL of a solution of EGFP-mRNA at 10 ng/μL in DMEM. The mixture was shaken for 30 min at room temperature before the addition to the cells. The cell medium was aspirated, and cells were washed with PBS twice. […] After the incubation, the medium was replaced by 100 μL of fresh DMEM supplemented with 10% FBS. The total EGFP fluorescence was quantified after 72 h in a well plate reader. Amphiphile transfection efficiency was compared and normalized to Lipofectamine® MessengerMax efficiency (value of 1 in Tables 1-5 and 7; double underlined numbers). All experiments were done in triplicate.
(§1) Tables 1-7: RLuc (pDNA) or EGFP (mRNA) expression levels were normalized to Lipofectamine reagents (value=1) and expressed as fold-times signal increase. In the case of siRNA, the siRNA treated cells fluorescence was compared with siMOCK control fluorescence, while Cas9-RNP mediated knockout was measured against the fluorescence of untreated cells. In both siRNA and Cas9-RNP, values are expressed as % fluorescence reduction. Amphiphile concentration was 5 μM in all cases. All experiments were performed in triplicate.
Tables 14-19 show the mean (triplicates) fluorescence intensity measured after the transfection of EGFP mRNA by different amphiphiles at different concentrations in a variety of cell lines. Background fluorescence values, accounted by untreated control cells, were subtracted for processing.

[2] = system: Hek293 cells expressing EGFP; test: EGFP-targeting siRNA delivery (GFP silencing vs siMOCK), Hek293
Description: (§2) To generate an EGFP expressing HeLa cell line, HeLa cells were transfected with EGFP pDNA (pEGFP-C1, Clontech) and stable transfectants were selected with 400 μg/mL of G-418 (Millipore). Green clones were selected by epifluorescence microscopy and tested for EGFP expression stability through several passages. […] All other EGFP-expressing cell lines were obtained in a similar way from parent non-EGFP-expressing cell lines.
(§3) Cells expressing EGFP were seeded in a 96 well plate the day before the experiment at a concentration of 50,000 cell/mL (100 μL/w) in DMEM+10% FBS+1% Gln-Abt. For robotic library screening, the delivery of an EGFP-targeting siRNA (EGFP: enhanced green fluorescent protein, Ambion® Silencer® GFP Positive Control siRNA (siGFP) (AM4626)) in six different cell lines expressing EGFP was performed. […] The mixture was shaken for 30 min at room temperature (rt) before the addition to the cells. The cell medium was aspirated, and cells were washed twice with PBS. Finally, 50 μL of the solution of siRNA/amphiphile complexes were added to the cells and incubated for 4 h. After transfection, the medium was replaced by 100 μL of fresh DMEM supplemented with 10% FBS. The fluorescence knockdown was quantified after 72 h in a plate reader, by comparison with cells transfected with a non-targeting siRNA control (siMOCK, Silencer™ Negative Control No. 1 siRNA (siMOCK) (AM4611)). EGFP knockdown was compared with Lipofectamine® RNAiMAX silencing efficiency (30-60% depending on cell line, defined with a numeric value in the below tables). All experiments were done in triplicate.
as §1
(§4) Tables 20-25 show the mean (triplicates) percentage of GFP-silencing, accounted by fluorescence intensity decrease relative to a non-targeting siRNA (siMOCK) control, measured after the transfection of siRNA by different amphiphiles at different concentrations in a variety of cell lines. Background values, accounted by untreated control cells, were subtracted for processing.

[3] = system: HepG2 cells; test: RLuc pDNA delivery, robotic library screening, HepG2
Description: Cells were seeded in a 96 well plate the day before the experiment at a concentration of 60,000 cell/mL (100 μL/w) in DMEM+10% FBS+1% Gln-Abt. For robotic library screening, the delivery of pDNA encoding for the expression of Renilla luciferase gene (RLuc, pRL-CMV (Promega, #E2261)) in six different cell lines was performed. Amphihilic molecule stock solutions in DMSO were diluted with DMEM and freshly mixed with pDNA stock solutions in DMEM prior to transfection experiments, to afford several complexes at different amphiphile concentration (2-10 μM) while maintaining a constant final pDNA concentration of 2 ng/μL. The mixture was shaken for 30 min at room temperature before the addition to the cells. The cell medium was aspirated, and cells were washed twice with PBS. Finally, 50 μL of the complex's solution were added to the cells and incubated for 4 h. After the incubation, the medium was replaced by 100 μL of fresh DMEM supplemented with 10% FBS. 72 hours after transfection the DMEM was removed, cells were washed once with HBSS and 90 μL of HBSS were added to each well. Cells were incubated at 37° C. for 30 minutes. Then basal luminescence levels were read in a plate reader. Immediately, 10 μL of coelenterazine h in HBSS were added to each well (5 μM final concentration) and cells were incubated at 37° C. for 10 minutes. Finally, the total luminescence measurement of the plates was performed. Amphiphile transfection efficiency was compared and normalized to Lipofectamine® 2000 efficiency (value of 1 in Tables 1-5 and 7; bold numbers). All experiments were done in triplicate.
as §1
Tables 8-13 show the mean (triplicates) luminescent intensity (RLU) measured after the transfection of RLuc pDNA by different amphiphiles at different concentrations in a variety of cell lines. Background luminescence values, accounted by untransfected control cells, were subtracted for processing.

[4] = system: ARPE19 cells expressing EGFP; test: EGFP-targeting siRNA delivery (GFP silencing vs siMOCK), ARPE19
Description: as §2, §3, §1, §4

Ac-RRLK*RLLRRLK*RLK*RRL-NH2 (Ac-RRLK(NHNH2)RLLRRLK(NHNH2)RLK(NHNH2)RRL-NH2; not fully specified; printed as Ac-RRLK*RLLRRLK*RLK*RRL-NH2; also: K*4,K*11,K*14: native or modified lysine (ε-amide to a linker)) [Peptide 17.3]
mean fluorescence intensity after transfection of EGFP mRNA ([1]; Dodecanal, 5 μM): 32417
mean fluorescence intensity after transfection of EGFP mRNA ([1]; Dodecanal, 10 μM): 2293
mean fluorescence intensity after transfection of EGFP mRNA ([1]; Myristoleyl, 5 μM): 39022
mean fluorescence intensity after transfection of EGFP mRNA ([1]; Myristoleyl, 10 μM): 251
mean fluorescence intensity after transfection of EGFP mRNA ([1]; Myristoleyl, 15 μM): −417
mean fluorescence intensity after transfection of EGFP mRNA ([1]; Oleyl, 5 μM): 6483
mean fluorescence intensity after transfection of EGFP mRNA ([1]; Palmitoleyl, 5 μM): 63064
mean fluorescence intensity after transfection of EGFP mRNA ([1]; Palmitoleyl, 10 μM): 7710
mean fluorescence intensity after transfection of EGFP mRNA ([1]; Palmitoleyl, 15 μM): 356
mean fluorescence intensity after transfection of EGFP mRNA ([1]; Petroselinyl, 5 μM): 56287
mean fluorescence intensity after transfection of EGFP mRNA ([1]; Petroselinyl, 10 μM): 5790
mean fluorescence intensity after transfection of EGFP mRNA ([1]; Petroselinyl, 15 μM): 157
percentage of GFP-silencing relative to siMOCK ([2]; Myristoleyl, 10 μM): 48%
percentage of GFP-silencing relative to siMOCK ([2]; Oleyl, 15 μM): 25%
percentage of GFP-silencing relative to siMOCK ([2]; Palmitoleyl, 10 μM): 37%
percentage of GFP-silencing relative to siMOCK ([2]; Petroselinyl, 5 μM): 9%
percentage of GFP-silencing relative to siMOCK ([2]; Petroselinyl, 15 μM): 52%
mean luminescent intensity (RLuc pDNA) ([3]; Dodecanal, 5 μM): 32417 RLU
mean luminescent intensity (RLuc pDNA) ([3]; Dodecanal, 10 μM): 2293 RLU
mean luminescent intensity (RLuc pDNA) ([3]; Dodecanal, 15 μM): −1196 RLU
mean luminescent intensity (RLuc pDNA) ([3]; Myristoleyl, 5 μM): 39022 RLU
mean luminescent intensity (RLuc pDNA) ([3]; Myristoleyl, 15 μM): −417 RLU
mean luminescent intensity (RLuc pDNA) ([3]; Oleyl, 5 μM): 6483 RLU
mean luminescent intensity (RLuc pDNA) ([3]; Oleyl, 15 μM): −1375 RLU
mean luminescent intensity (RLuc pDNA) ([3]; Palmitoleyl, 5 μM): 63064 RLU
mean luminescent intensity (RLuc pDNA) ([3]; Palmitoleyl, 15 μM): 356 RLU
percentage of GFP-silencing relative to siMOCK ([4]; Dodecanal, 5 μM): 29%
percentage of GFP-silencing relative to siMOCK ([4]; Dodecanal, 10 μM): 14%
percentage of GFP-silencing relative to siMOCK ([4]; Dodecanal, 15 μM): 22%
percentage of GFP-silencing relative to siMOCK ([4]; Myristoleyl, 5 μM): 43%
percentage of GFP-silencing relative to siMOCK ([4]; Myristoleyl, 15 μM): −5%
percentage of GFP-silencing relative to siMOCK ([4]; Oleyl, 10 μM): 22%
percentage of GFP-silencing relative to siMOCK ([4]; Palmitoleyl, 5 μM): 36%
percentage of GFP-silencing relative to siMOCK ([4]; Palmitoleyl, 10 μM): 24%
percentage of GFP-silencing relative to siMOCK ([4]; Palmitoleyl, 15 μM): −4%
percentage of GFP-silencing relative to siMOCK ([4]; Petroselinyl, 5 μM): 36%
percentage of GFP-silencing relative to siMOCK ([4]; Petroselinyl, 10 μM): 20%

Ac-RRLK*RLLRRLK*RL-NH2 (Ac-RRLK(NHNH2)RLLRRLK(NHNH2)RL-NH2; not fully specified; printed as Ac-RRLK*RLLRRLK*RL-NH2; also: K*4,K*11: native or modified lysine (ε-amide to a linker)) [Peptide 13.2]
mean fluorescence intensity after transfection of EGFP mRNA ([1]; Oleyl, 5 μM): 612
percentage of GFP-silencing relative to siMOCK ([2]; Oleyl, 10 μM): −7%
percentage of GFP-silencing relative to siMOCK ([2]; Oleyl, 15 μM): 17%
percentage of GFP-silencing relative to siMOCK ([4]; Oleyl, 10 μM): 22%
percentage of GFP-silencing relative to siMOCK ([4]; Oleyl, 15 μM): 1%

Ac-RHLK*RHK*RRLK*RH-NH2 (Ac-RHLKRHKRRLKRH-NH2; not fully specified (residues 4, 7, 11); printed as Ac-RHLK*RHK*RRLK*RH-NH2; also: linker on K* not given here) [13(3His)]
percentage of GFP-silencing relative to siMOCK ([2]; Dodecanal, 10 μM): −11%
percentage of GFP-silencing relative to siMOCK ([2]; Myristoleyl, 15 μM): 11%
percentage of GFP-silencing relative to siMOCK ([2]; Oleyl, 10 μM): 2%
mean luminescent intensity (RLuc pDNA) ([3]; Myristoleyl, 5 μM): 149920 RLU
mean luminescent intensity (RLuc pDNA) ([3]; Myristoleyl, 15 μM): 29774 RLU
mean luminescent intensity (RLuc pDNA) ([3]; Oleyl, 10 μM): 33557 RLU
mean luminescent intensity (RLuc pDNA) ([3]; Oleyl, 15 μM): 1389 RLU
mean luminescent intensity (RLuc pDNA) ([3]; Palmitoleyl, 5 μM): 65912 RLU
mean luminescent intensity (RLuc pDNA) ([3]; Palmitoleyl, 15 μM): 17170 RLU
percentage of GFP-silencing relative to siMOCK ([4]; Dodecanal, 5 μM): 16%
percentage of GFP-silencing relative to siMOCK ([4]; Dodecanal, 15 μM): 22%
percentage of GFP-silencing relative to siMOCK ([4]; Myristoleyl, 10 μM): 42%
percentage of GFP-silencing relative to siMOCK ([4]; Myristoleyl, 15 μM): 30%
percentage of GFP-silencing relative to siMOCK ([4]; Oleyl, 10 μM): 43%
percentage of GFP-silencing relative to siMOCK ([4]; Oleyl, 15 μM): 41%
percentage of GFP-silencing relative to siMOCK ([4]; Palmitoleyl, 10 μM): 49%
percentage of GFP-silencing relative to siMOCK ([4]; Palmitoleyl, 15 μM): 25%
percentage of GFP-silencing relative to siMOCK ([4]; Petroselinyl, 5 μM): 13%
percentage of GFP-silencing relative to siMOCK ([4]; Petroselinyl, 10 μM): 56%
percentage of GFP-silencing relative to siMOCK ([4]; Petroselinyl, 15 μM): 30%

Ac-RK*LRRLLRK*-NH2 (Ac-RK(NHNH2)LRRLLRK(NHNH2)-NH2; not fully specified; printed as Ac-RK*LRRLLRK*-NH2; also: K*2,K*9: native or modified lysine (ε-amide to a linker)) [Peptide 9.2]
percentage of GFP-silencing relative to siMOCK ([2]; Dodecanal, 5 μM): 14%
percentage of GFP-silencing relative to siMOCK ([2]; Dodecanal, 15 μM): 3%
percentage of GFP-silencing relative to siMOCK ([2]; Myristoleyl, 10 μM): 10%
percentage of GFP-silencing relative to siMOCK ([2]; Myristoleyl, 15 μM): −1%
mean luminescent intensity (RLuc pDNA) ([3]; Dodecanal, 10 μM): 5678 RLU
mean luminescent intensity (RLuc pDNA) ([3]; Dodecanal, 15 μM): 2289 RLU
mean luminescent intensity (RLuc pDNA) ([3]; Myristoleyl, 5 μM): 26828 RLU
mean luminescent intensity (RLuc pDNA) ([3]; Myristoleyl, 10 μM): 68860 RLU
mean luminescent intensity (RLuc pDNA) ([3]; Myristoleyl, 15 μM): 46601 RLU
percentage of GFP-silencing relative to siMOCK ([4]; Dodecanal, 5 μM): 13%
percentage of GFP-silencing relative to siMOCK ([4]; Dodecanal, 10 μM): 34%
percentage of GFP-silencing relative to siMOCK ([4]; Dodecanal, 15 μM): 30%
percentage of GFP-silencing relative to siMOCK ([4]; Myristoleyl, 5 μM): 24%
